{
  "source": "patent US20240293513A1",
  "about": "“USE OF MAZDUTIDE” (INNOVENT BIOLOGICS (SUZHOU) CO., LTD., priority 2021, published 2024)",
  "key": {"uric acid": {"system": "uric acid", "assay": "Change in uric acid from baseline in subjects with type 2 diabetes", "type": "in vivo, human", "settings": "1.5 mg QW for 12 weeks, day 85 post-dose vs baseline, N = 6", "method": "FIG. 3 illustrates the change in uric acid from baseline after administration in subjects with diabetes.\n(§1) In this study, the enrollment of 42 patients with type 2 diabetes with uncontrolled glycosylated hemoglobin despite at least 2 months of lifestyle intervention or treatment with a stable dose of metformin (≥1000 mg/day or the maximum tolerated dose). Three cohorts were included in this study: cohort 1 (n=14), cohort 2 (n=14), and cohort 3 (n=14). Subjects in each cohort were randomized in an 8:4:2 ratio into the mazdutide treatment group (n=8), the placebo group (n=4), and the dulaglutide 1.5 mg treatment group (n=2). In cohorts 1, 2, and 3, the active control drug, dulaglutide, was administered at 1.5 mg QW for 12 weeks, and the dosing regimens for mazdutide and placebo are described below:\n(§2) Cohort 1: Subjects were administered with a starting dose of 1.0 mg once weekly for 4 weeks. If the treatment was well tolerated*, the dose was adjusted to 2.0 mg, and was administered once weekly for 4 weeks. If the treatment was well tolerated*, the dose was adjusted to 3.0 mg, and was administered once weekly for 4 weeks. (ascending at a rate of 1 mg/4 weeks to the target dose).\n(§3) Cohort 2: Subjects were administered with a starting dose of 1.5 mg once weekly for 4 weeks.\nIf the treatment was well tolerated*, the dose was adjusted to 3.0 mg, and was administered once weekly for 4 weeks. […]"}, "healthy subjects": {"system": "healthy subjects", "assay": "Single dose study in healthy subjects (18P-MC-OXAA), safety and tolerability", "type": "in vivo, human", "method": "In another aspect of the present invention, provided is a pharmaceutical composition for reducing a uric acid level in a patient, comprising a compound of formula (I) or a pharmaceutically acceptable salt thereof, and at least one pharmaceutically acceptable carrier.\nA single dose study in healthy subjects (18P-MC-OXAA): a single center, double-blind, randomized, placebo-controlled SAD study has been completed (ascending doses of 0.03 mg, 0.1 mg, 0.3 mg, 1.0 mg, 2.5 mg, and 5.0 mg), which mainly assessed the safety, tolerability, and PK/PD profile of mazdutide in healthy subjects."}, "[1]": {"system": "patients with obesity or overweight", "assay": "Safety assessment in patients with obesity or overweight (12-week dose escalation)", "type": "in vivo, human", "method": "(§4) Mazdutide and placebo were both administered subcutaneously once weekly. The doses were prepared and administered by study nurses according to the manual instructions of the study drugs. • 1.5 Inclusion criteria\nI. Subjects with obesity or overweight meeting all of the following criteria were included in the study: • 1. Aged 18-75 years (inclusive), male or female: • 2. For obesity, BMI≥28.0 kg/m^2: for overweight, 24≤ BMI<28.0 kg/m^2 with at least one of the following: i, increased appetite, intolerable hunger before meals, and increased food consumption: ii, comorbidity with one or more of pre-diabetes (impaired fasting glucose and/or impaired glucose tolerance), hypertension, dyslipidemia (see appendix 4 for reference criteria), and fatty liver (within 6 months before the screening); iii, comorbidity with weight-bearing joint pain: iv, obesity-related dyspnea or obstructive sleep apnea syndrome: • 3. Weight change<5% after at least 12 weeks of diet/exercise weight control at the time of screening\nIn this study, the enrollment of 36 patients with overweight or obesity having a weight change of less than 5% after at least 12 weeks of diet/exercise control was planned. Three cohorts were included in this double-blind study: cohort 1 (n=12), cohort 2 (n=12), and cohort 3 (n=12). Subjects in each cohort were randomized in a 2:1 ratio into the mazdutide treatment group (n=8) and the placebo group (n=4). The subcutaneous dosing regimens for mazdutide or placebo in cohort 1, cohort 2 and cohort 3, are described below (as shown in FIG. 1):\nas §2\nCohort 2: Subjects were administered with a starting dose of 1.5 mg once weekly for 4 weeks. If the treatment was well tolerated*, the dose was adjusted to 3.0 mg, and was administered once weekly for 4 weeks. If the treatment was well tolerated*, the dose was adjusted to 4.5 mg, and was administered once weekly for 4 weeks (ascending at a rate of 1.5 mg/4 weeks to the target dose).\nCohort 3: Treatment in cohort 3 was started when the 4-week treatment at 1.5 mg was completed and well tolerated in the subjects in cohort 2: if 1.5 mg was not tolerated in cohort 2, 2.0 mg and higher doses were not investigated in cohort 3. In this cohort, subjects were administered with a starting dose of 2.0 mg once weekly for 4 weeks. If the treatment was well tolerated*, the dose was adjusted to 4.0 mg, and was administered once weekly for 4 weeks. If the treatment was well tolerated*, the dose was adjusted to 6.0 mg, and was administered once weekly for 4 weeks. (ascending at a rate of 2 mg/4 weeks to the target dose).\nFor patients with obesity or overweight: By Mar. 15, 2021, 36 subjects were enrolled and 36 were included in the analysis. […] Only 2 patients in cohort 1 had mild urticaria. […] The gastrointestinal events occurred at a higher rate in the treatment group than in the placebo group, which complies with the mechanism of action of the drug."}, "patients with diabetes": {"system": "patients with diabetes", "assay": "Safety assessment in patients with type 2 diabetes (12-week dose escalation)", "type": "in vivo, human", "method": "as §4, §1, §2, §3\nIf the treatment was well tolerated*, the dose was adjusted to 3.0 mg, and was administered once weekly for 4 weeks. If 3.0 mg was not well tolerated but still met the tolerance criteria, the next dose was investigated in cohort 2 (backup 1): if the dose was well tolerated, the study proceeded to 4.5 mg. The treatment was given once weekly for 4 weeks, if 4.5 mg was not well tolerated but still met the tolerance criteria, the next dose was investigated in cohort 2 (backup 2). (ascending at a rate of 1.5 mg/4 weeks to the target dose).\nCohort 2 (backup 2): If 4.5 mg was not tolerated, the treatment should be discontinued for 1 week and resumed at the dose of 3.75 mg for 2 weeks until the end of study. […]"}, "[2]": {"assay": "Stability of the drug substance", "type": "physicochemical", "settings": "≤−20° C."}, "[3]": {"assay": "Solubility of the investigational product", "type": "physicochemical", "settings": "20 mM tris(hydroxymethyl)aminomethane solutions and 150 mM NaCl solutions with pH 8.0"}},
  "data": [
    {"molecule": "Dulaglutide", "values": [
      {"measurement": "Uric acid Mean of change", "setting": "uric acid", "result": 16.67, "unit": "µmol/L"}
    ]},
    {"molecule": "CC(C)C[C@H](NC(=O)[C@H](CC(C)C)NC(=O)[C@H](Cc1c[nH]c2ccccc12)NC(=O)[C@H](CCC(=O)O)NC(=O)[C@@H](NC(=O)[C@H](Cc1ccccc1)NC(=O)[C@H](CCC(=O)O)NC(=O)[C@H](CCCCNC(=O)COCCOCCNC(=O)COCCOCCNC(=O)CC[C@H](NC(=O)CCCCCCCCCCCCCCCCCCC(=O)O)C(=O)O)NC(=O)[C@H](C)NC(=O)[C@H](CCCCN)NC(=O)[C@H](CCCCN)NC(=O)[C@H](CCC(=O)O)NC(=O)[C@H](CC(=O)O)NC(=O)[C@H](CC(C)C)NC(=O)[C@H](Cc1ccc(O)cc1)NC(=O)[C@H](CCCCN)NC(=O)[C@H](CO)NC(=O)[C@H](Cc1ccc(O)cc1)NC(=O)[C@H](CC(=O)O)NC(=O)[C@H](CO)NC(=O)[C@@H](NC(=O)[C@H](Cc1ccccc1)NC(=O)[C@@H](NC(=O)CNC(=O)[C@H](CCC(N)=O)NC(=O)C(C)(C)NC(=O)[C@@H](N)Cc1c[nH]cn1)[C@@H](C)O)[C@@H](C)O)C(C)C)C(=O)N[C@@H](CCC(=O)O)C(=O)NCC(=O)NCC(=O)N1CCC[C@H]1C(=O)N[C@@H](CO)C(=O)N[C@@H](CO)C(=O)NCC(N)=O", "note": "[mazdutide]", "values": [
      {"measurement": "tolerability", "setting": "healthy subjects; healthy subjects, dose ascended to 2.5 mg", "result": "tolerated"},
      {"measurement": "subjects with gastrointestinal-related AEs (mainly nausea and vomiting)", "setting": "healthy subjects; healthy subjects, dose ascended to 5 mg", "result": 6, "unit": "subjects"},
      {"measurement": "maximum tolerated dose (MTD) for single-dose administration", "setting": "healthy subjects; healthy subjects, single ascending doses 0.03-5.0 mg", "result": 2.5, "unit": "mg"},
      {"measurement": "safety and tolerability", "setting": "healthy subjects; single-dose and multi-dose escalation studies in healthy populations", "result": "good safety and tolerability"},
      {"measurement": "SAEs", "setting": "[1]", "result": "no SAEs"},
      {"measurement": "acute pancreatitis", "setting": "[1]", "result": "no acute pancreatitis"},
      {"measurement": "discontinuation or withdrawal due to AEs", "setting": "[1]", "result": "no discontinuation or withdrawal due to AEs"},
      {"measurement": "dose escalation termination-related AEs", "setting": "[1]", "result": "no dose escalation termination-related AEs"},
      {"measurement": "hypoglycemia events", "setting": "[1]", "result": "no hypoglycemia events"},
      {"measurement": "severe adverse events", "setting": "[1]", "result": "no severe adverse events"},
      {"measurement": "patients with mild urticaria", "setting": "[1]; cohort 1 (1 mg-2 mg-3 mg)", "result": 2, "unit": "patients"},
      {"measurement": "overall safety and tolerance", "setting": "[1]; sc once weekly, 12 weeks", "result": "good overall safety and tolerance"},
      {"measurement": "anorexia rate of occurrence", "setting": "[1]; treatment group", "result": 29.2, "unit": "%"},
      {"measurement": "diarrhea rate of occurrence", "setting": "[1]; treatment group", "result": 25, "unit": "%"},
      {"measurement": "nausea rate of occurrence", "setting": "[1]; treatment group", "result": 16.7, "unit": "%"},
      {"measurement": "Gastrointestinal adverse events rate", "setting": "[1]; treatment group, 15/24 cases", "result": 62.5, "unit": "%"},
      {"measurement": "average heart rate", "setting": "[1]; versus placebo group", "result": "increase in average heart rate over the placebo group"},
      {"measurement": "acute pancreatitis, severe hypoglycemia, allergic reaction or injection site reaction", "setting": "patients with diabetes", "result": "no acute pancreatitis, severe hypoglycemia, allergic reaction or injection site reaction"},
      {"measurement": "dose escalation termination-related AEs", "setting": "patients with diabetes", "result": "no dose escalation termination-related AEs"},
      {"measurement": "overall safety and tolerance", "setting": "patients with diabetes; sc once weekly, 12 weeks", "result": "good overall safety and tolerance"},
      {"measurement": "Stability", "setting": "[2]", "result": "The drug substance is stable at ≤−20 °C"},
      {"measurement": "solubility", "setting": "[3]", "result": "≥ 10000", "unit": "µg/mL"}
    ]}
  ]
}
